The target in test [1] is T1, PPARα (Homo sapiens, UniProt Q07869).
T1 construct: gene PPARA
T1 sequence (Q07869 196-468 limits assumed): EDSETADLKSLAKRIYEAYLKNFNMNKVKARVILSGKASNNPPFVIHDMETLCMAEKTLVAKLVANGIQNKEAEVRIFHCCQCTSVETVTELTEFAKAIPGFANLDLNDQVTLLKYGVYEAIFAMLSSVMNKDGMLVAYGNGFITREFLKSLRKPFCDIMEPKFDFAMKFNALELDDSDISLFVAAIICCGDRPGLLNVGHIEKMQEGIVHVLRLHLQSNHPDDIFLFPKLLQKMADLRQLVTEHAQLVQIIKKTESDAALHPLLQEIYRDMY
Kind of test: TR-FRET competitive binding assay; also ultrafiltration LC-MS and cell transactivation. On the technique in general: In TR-FRET formats the signal depends on donor and acceptor labels being close together.

The target in test [2] is T2, PPARγ (Homo sapiens, UniProt P37231).
T2 construct: gene PPARG
T2 sequence (P37231 232-505 limits assumed): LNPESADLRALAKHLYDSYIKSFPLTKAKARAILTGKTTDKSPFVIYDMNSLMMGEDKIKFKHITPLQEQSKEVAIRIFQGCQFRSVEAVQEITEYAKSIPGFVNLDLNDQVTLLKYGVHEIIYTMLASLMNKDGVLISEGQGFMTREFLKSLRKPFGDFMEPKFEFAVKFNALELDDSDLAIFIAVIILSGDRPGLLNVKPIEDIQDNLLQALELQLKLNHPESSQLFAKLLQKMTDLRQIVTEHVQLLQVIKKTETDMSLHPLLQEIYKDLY
Kind of test: TR-FRET competitive binding assay.

Test [3] deals with T1, PPARα. Description: TR-FRET competitive binding assay.

Results on three compounds are retold here after paper PMC6331909, “Identification of Eupatilin from Artemisia argyi as a Selective PPARα Agonist Using Affinity Selection Ultrafiltration LC-MS” (Molecules, 2015).

Regarding `COc1ccc(-c2cc(=O)c3c(O)c(OC)c(O)cc3o2)cc1OC` [eupatilin], in test [1], the IC50 is 1180 nM.

`O=C(Nc1ccccc1)c1cc([N+](=O)[O-])ccc1Cl` [GW9662] came in with an IC50 in test [2] of 24.3 nM.

As to `CCC(=O)NC[C@H](Cc1ccc(OCCc2nc(-c3ccccc3)oc2C)cc1)N/C(C)=C\C(=O)c1ccc(C(F)(F)F)cc1` [GW6471], the IC50 in test [3] is 227 nM.

Broadly, the IC50 is the concentration that inhibits the measured activity by half. A low value points to higher potency.
